Assay results from US8883798B2, “Pyrimidine compounds inhibiting the formation of nitric oxide and prostaglandin E2, method of production thereof and use thereof” (Ustav Organicke Chemie a Biochemie Akademie Ved CR, V.V.I., priority 2011, dated 2014).

What was measured:
peritoneal cells of mice = assay: Cell viability of mouse peritoneal cells (WST-1 kit); type: cell-based; conditions: Table 3A, substance 50 μmol·l^−1, 24 h
How it was run: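 C57BL/6 mouse peritoneal cells (1×10^6/mL) cultured 24 h with compounds at 50 μmol·l^−1. Viability read with WST-1 tetrazolium salt and expressed as percent of untreated control cells (100%).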

[1] = test system: acute experimental colitis in mice; assay: Acute experimental colitis induced in mice by dextran sulphate sodium; type: in vivo, mice BALB/c; conditions: for Therapeutical effect compared with 6-TG: acute colitis, approximately 10 mg/kg; for Course of induced acute experimental colitis: approximately 10 mg/kg by stomach probe for seven days; for Protection from severe forms of acute experimental colitis: daily oral doses of 2.5 mg/kg or 10 mg/kg
Experimental: The compounds tested were dissolved in 0.5% methylcellulose (MC, Bio-test s.r.o., Konárovice, Czech Republic; Lot: 050510BT) to acquire a final concentration of 2 mg/ml (ca 10 mg/kg). To achieve homogeneity of the suspensions, the substances in MC were disintegrated by ultrasound (sonicated; 20 s, λ=0.1 μm). Fresh suspensions were prepared every day.
The female mice of strain BALB/c at 13 weeks old were acquired from the breeding of the Institute of Physiology of the ASCR, v.v.i. Colitis was induced in them by administering a 3% solution (weight/volume) of sodium dextran sulphate (DSS, mol. weight 36-50 kDa; MP Biomedicals, Inc.) in drinking water for a period of seven days [Gastroenterology 98, 694-7, 1990]. Beginning on Day 1 of DSS administration, also a dose of the tested compound, dissolved in 100 μl MC (only a dose of methylcellulose in the case of the control animals), was administered for seven days by stomach probe.
The severity of the colitis was assessed on the last day of the experiment by scoring the clinical activity, histological parameters and measuring the length of the intestine.
The entire intestine was removed post mortem, without tightening it was placed on a ruler and measured. Shortening of the intestine is an indirect marker of infection (the shorter the intestine, the more serious the infection).
The points of the clinical activity are the sum of the individual assessments from 0 to 4 and were calculated using the following parameters: reduction of body weight (none=0 points, reduction by 1 to 5%=1 point, by 5-10%=2 points, by 10-20%=3 points, by 20%=4 points), consistency of the feces (solid=0 points; not solid, but not sticking to the anus=2 points; liquid, sticking to the anus=4 points) and bleeding (none=0 points, positive Guajak reaction=2 body, strong bleeding=4 points). This point assessment was totaled and divided by three to acquire the overall index of the activity of the disease, which was in a range from 0.0 (a healthy individual) to 4.0 (maximum activity of colitis) as described by Cooper et al. [Lab. Invest. 69, 238-49, 1993].
The descending colon was fixed in a buffered solution of 4% formaldehyde and poured into paraffin for the histological assessment. The sections were stained in hematoxylin/eosin. For every sample, four cross cuts were tested, which had been separated from one another by sections of a length of […]. The histological assessment was made for every cut by two pathologists in blind order, which provided an assessment combining the level of the infiltration of leukocytes into the layer of the lamia propria and into the submucosa along with the extent of the damage of the mucous membrane (see Table 1). The overall assessment is the average of the evaluation of the four sections, which was in a range from 0 (no signs of colitis) to 3 (severe colitis).
The differences in the intestinal length, DAI (disease activity index) and histological assessment of multiple groups were compared with the control group (MC/DSS) using a one-way analysis of the differences with a Dunnett test of multiple comparison. The differences were considered as statistically significant at P<0.05.
Compounds 28 and 51 were suspended in 0.5% methylcellulose (MC, Bio-test s.r.o., Konárovice, Czech Republic, Lot: 050510BT) to a concentration of 2 mg/ml (approximately 10 mg/kg). Sterile 0.5% MC was used as a placebo and a dose of 40 mg/each administration of 6-thioguanine (6TG) in 0.5% MC as a positive control. The administered suspensions were prepared freshly […].

[2] = test system: production of prostaglandin E2 (PGE2); assay: Production of prostaglandin E2 (PGE2) in cultures of mouse peritoneal cells stimulated with LPS (ELISA kit); type: cell-based, mice; conditions: Table 3A, substance 50 μmol·l^−1, 6 h
How it was run: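 C57BL/6 mouse peritoneal cells (3×10^6/mL) stimulated with LPS (10 ng/mL). PGE2 measured by ELISA.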

[3] = test system: Salmonella typhimurium TA 98 and TA 100, Escherichia coli WP2 uvrA; conditions: all strains, all tested concentrations, with and without metabolic activation
Experimental: With compound 28, its possible mutagenicity (genotoxicity) was assessed using the standard bacterial reverse mutation test. According to Council Regulation (ES) No. 440/2008, stipulating the test methods according to the European Parliament and Council regulation (ES), the method used was B.13/14, Mutagenicity—Reverse Mutation Test Using Bacteria, which is described in the same way also in the OECD Test Guideline No. 471.
[…] The experiments were conducted without using metabolic activation and after activation with supernatant S9 from […] livers and with mixtures of cofactors (NADP and glucoso-6-phosphate) to determine the mutagenicity of the metabolic products of the compound tested. Supernatant S9 was prepared according to the literature [Mutat. Res. 113, 173-215, 1983].
The principle of the test is to detect possible revertants created by reverse mutation, which would be induced in the bacterial culture by the tested compound. Specially constructed bacterial strains are used, carrying mutations in the place for his (trp), which are not capable of forming colonies on the minimum plates without histidine or tryptophan. […] Mutagenic potential is given by the growing number of revertants in the influenced groups in comparison with a negative control, and/or in dependence on the growing number of revertants on the dose of the tested compound.
Bacterial testers, types Salmonella typhimurium TA 98 (CCM 3811) and Escherichia coli WP2 uvrA (CCM 4751), were acquired from the Czech Collection of Microorganisms of Masaryk University, Brno and the strain Salmonella typhimurium TA100 (CIP 103796, lot No. 1008) from the Biological Resource Center, Institut Pasteur in Paris (CRBIP).

Compound | Cell viability in % of the controls (peritoneal cells of mice) | Therapeutical effect compared with 6-TG [1] | Course of induced acute experimental colitis [1] | Protection from severe forms of acute experimental colitis [1] | Production of prostaglandins in % of the controls [2] | Mutagenicity (reverse mutation) [3]
CCCCc1c(Cl)nc(N)nc1Cl [Substance 28] | 100.42 ± 5.77 % of the controls | minimally equal with the effect of 6-TG | statistically significant reduction of the course of the induced (severe form) experimental colitis | protect mice from the severe forms of acute experimental colitis | 13.14 ± 0.13 % of the controls | non-mutagenous
CCCCc1c(Cl)nc(NC=O)nc1Cl [Substance 51] | 92.15 ± 9.90 % of the controls | minimally equal with the effect of 6-TG | statistically significant reduction of the course of the induced (severe form) experimental colitis | protect mice from the severe forms of acute experimental colitis | 5.22 ± 2.66 % of the controls | non-mutagenous
